Measurements taken from US8058243B2, “Method for treating a brain cancer with ifenprodil” (HSC Research and Development Limited Partnership, priority 2006, dated 2011).
Like-named read-outs stand apart in the source and are kept apart here.

Test system: murine neural precursor cells (neurosphere cultures)
Test: HTS of LOPAC library against secondary neurosphere cultures, MTT proliferation assay at 3 μM, day 7 (z score, P value)
Type: cell-based, mouse
[1] = LOPAC primary screen, neurosphere MTT proliferation, 3 μM, day 7
[2] = yes/no: significantly inhibited neurosphere proliferation (P<0.01) in the primary screen
[3] = LOPAC library screen, 3 μM, MTT, secondary neurosphere cultures, day 7
[4] = yes/no: significantly inhibited neurosphere proliferation (P<0.01) in primary screen
[5] = primary LOPAC screen, 3 μM, MTT, neurosphere proliferation
[6] = yes/no: significantly inhibited neurosphere proliferation in the primary screen
[7] = yes = significantly inhibited neurosphere proliferation (P<0.01) in the primary screen
[8] = LOPAC library screen at 3 μM, secondary neurosphere cultures, MTT
[9] = LOPAC screen, neurosphere MTT proliferation, 3 μM, day 7

| Compound | Z Score | also measured |
| --- | --- | --- |
| CCN(CC)C(C)C(=O)N1c2ccccc2Sc2ccccc21 (stereo not drawn) [10-(alpha-Diethylaminopropionyl)-phenothiazine] | – | Z score [1]: −1.545; Activity [2]: no |
| CC1=C(/C=C/C(C)=C/C=C/C(C)=C\C(=O)O)C(C)(C)CCC1 [13-cis-retinoic acid] | – | Z Score [3]: −1.469; Z score [1]: −1.469; Activity [2]: no |
| CC(=O)[C@@]1(O)CC[C@H]2[C@@H]3CCC4=CC(=O)CC[C@]4(C)[C@H]3CC[C@@]21C [17alpha-hydroxyprogesterone] | −0.5783 | Z score [1]: −0.578; Activity [4]: no |
| CC(N)=NCc1cccc(CN)c1.Cl.Cl [1400W dihydrochloride] | −0.2749 | Z score [5]: −0.275; Activity [6]: no |
| CN1CCc2cc3c(cc2[C@H]1[C@@H]1OC(=O)c2c1ccc1c2OCO1)OCO3 [(+)-Bicuculline] | −0.1989 | Z score [1]: −0.199; Activity [2]: no |
| CC(C)C[C@H]1C(=O)N2CCC[C@H]2[C@]2(O)O[C@](NC(=O)[C@@H]3C=C4c5cccc6[nH]c(Br)c(c56)C[C@H]4N(C)C3)(C(C)C)C(=O)N12.CS(=O)(=O)O [(+)-Bromocriptine methanesulfonate] | 0.02792 | Z score [5]: 0.028; Activity [6]: no |
| CC[C@@H]1C(=O)OC[C@@H]1Cc1cncn1C.Cl [(+)-Pilocarpine hydrochloride] | – | Z Score [3]: −1.548; Z score [1]: −1.548; Activity [7]: no |
| N[C@@H](Cn1oc(=O)[nH]c1=O)C(=O)O [(+)-Quisqualic acid] | 0.4361 | Z score [1]: 0.436; Activity (yes/no: significantly inhibited neurosphere proliferation in primary screen): no |
| C[C@@H]1OC[C@H](C[N+](C)(C)C)O1.[I-] [(+)-cis-Dioxolane iodide] | −3.402 | Z score [1]: −3.402; Activity [2]: yes |
| NC(CP(=O)(O)O)C(=O)O (stereo not drawn) [(B1)-2-Amino-3-phosphonopropionic acid] | 1.25 | – |
| NC(CCP(=O)(O)O)C(=O)O (stereo not drawn) [(B1)-2-Amino-4-phosphonobutyric acid] | 1.893 | – |
| NC(CCCP(=O)(O)O)C(=O)O (stereo not drawn) [(B1)-2-Amino-5-phosphonopentanoic acid] | −1.045 | – |
| NC(CCCCCP(=O)(O)O)C(=O)O (stereo not drawn) [(B1)-2-Amino-7-phosphonoheptanoic acid] | −1.02 | – |
| Br.Oc1cc2c(c(Cl)c1O)CCNCC2c1ccccc1 (stereo not drawn) [(B1)-6-Chloro-PB hydrobromide] | −2.267 | – |
| Br.CCCN(CCC)C1CCc2ccc(O)cc2C1 (stereo not drawn) [(B1)-7-Hydroxy-DPAT hydrobromide] | −11.1 | – |
| Br.CCCN(CCC)C1CCc2cccc(O)c2C1 (stereo not drawn) [(B1)-8-Hydroxy-DPAT hydrobromide] | 0.6561 | – |
| Br.Cc1o[nH]c(=O)c1CC(N)C(=O)O (stereo not drawn) [(B1)-AMPA hydrobromide] | −0.4272 | – |
| CC(C)NCC(O)COc1ccc(CC(N)=O)cc1 (stereo not drawn) [(B1)-Atenolol] | – | Z Score [8]: −0.6583 |
| NCC(CC(=O)O)c1ccc(Cl)cc1 (stereo not drawn) [(B1)-Baclofen] | −1.069 | – |
| COC(=O)C1=C(C)NC(C)=C([N+](=O)[O-])C1c1ccccc1C(F)(F)F (stereo not drawn) [(B1)-Bay K 8644] | 0.8527 | – |
| CN(C)CCC(c1ccc(Br)cc1)c1ccccn1.O=C(O)/C=C\C(=O)O (stereo not drawn) [(B1)-Brompheniramine maleate] | −3.53 | – |
| CC(C)(C)[C@]1(O)CCN2C[C@H]3c4ccccc4CCc4cccc(c43)[C@@H]2C1.Cl [(B1)-Butaclamol hydrochloride] | −5.934 | – |
| CC(C)(C)NCC(O)COc1cccc2[nH]c(=O)[nH]c12.Cl (stereo not drawn) [(B1)-CGP-12177A hydrochloride] | −1.611 | – |

| Compound | Z Score | also measured |
| --- | --- | --- |
| O=C(O)C1CN(CCCP(=O)(O)O)CCN1 (stereo not drawn) [(B1)-CPP] | 0.3213 | – |
| Br.C=CCN1CCc2c(cc(O)c(O)c2Cl)C(c2ccccc2)C1 (stereo not drawn) [(B1)-Chloro-APB hydrobromide] | −0.111 | – |
| CN(C)CCC(c1ccc(Cl)cc1)c1ccccn1.O=C(O)/C=C\C(=O)O (stereo not drawn) [(B1)-Chlorpheniramine maleate] | −2.116 | – |
| COc1cc(CC(C)N)c(OC)cc1I.Cl (stereo not drawn) [(B1)-DOI hydrochloride] | −1.345 | – |
| CNCC(O)c1ccc(O)c(O)c1.Cl (stereo not drawn) [(B1)-Epinephrine hydrochloride] | – | Z Score [8]: −0.3279 |
| NC1CCN(O)C1=O (stereo not drawn) [(B1)-HA-966] | 1.157 | – |
| N[C@H](C(=O)O)c1cc(O)no1 [(B1)-Ibotenic acid] | −1.65 | – |
| CC(C)Cc1ccc(C(C)C(=O)O)cc1 (stereo not drawn) [(B1)-Ibuprofen] | −0.2623 | – |
| CC(C)NCC(O)c1ccc(O)c(O)c1.Cl (stereo not drawn) [(B1)-Isoproterenol hydrochloride] | −0.5717 | – |
| COc1ccc(CCN(C)CCCC(C#N)(c2cc(OC)c(OC)c(OC)c2)C(C)C)cc1OC.Cl (stereo not drawn) [(B1)-Methoxyverapamil hydrochloride] | −1.407 | – |
| COCCc1ccc(OCC(O)CNC(C)C)cc1.O=C(O)C(O)C(O)C(=O)O (stereo not drawn) [(B1)-Metoprolol (+)-tartrate] | −0.2689 | – |
| C[C@@H]1O[C@H](C[N+](C)(C)C)C[C@H]1O.[Cl-] [(B1)-Muscarine chloride] | −1.905 | – |
| O=C(O)C1CCCNC1 (stereo not drawn) [(B1)-Nipecotic acid] | −0.7215 | – |
| NC[C@H](O)c1ccc(O)c(O)c1.O=C(O)C(O)C(O)C(=O)O [(B1)-Norepinephrine (+)bitartrate] | 0.09903 | – |
| COc1cc(C(O)CN)ccc1O.Cl (stereo not drawn) [(B1)-Normetanephrine hydrochloride] | – | Z Score [3]: −1.796 |
| CN1CCN(C2Cc3ccccc3Sc3ccc(Cl)cc32)CC1.O=C(O)/C=C\C(=O)O (stereo not drawn) [(B1)-Octoclothepin maleate] | 1.473 | – |
| Cl.NCC(O)c1ccc(O)cc1 (stereo not drawn) [(B1)-Octopamine hydrochloride] | −1.567 | – |
| CCCN1CCO[C@@H]2c3cc(O)ccc3OC[C@H]21.Cl [(B1)-PD 128,907 hydrochloride] | 1.164 | – |
| CCCN(CCc1ccccc1)C1CCc2c(O)cccc2C1.Cl (stereo not drawn) [(B1)-PPHT hydrochloride] | −1.915 | – |
| CC(C)NCC(O)COc1cccc2ccccc12.Cl (stereo not drawn) [(B1)-Propranolol hydrochloride] | – | Z Score (LOPAC library screen, 3 μM, MTT, neurosphere cultures): 0.3567 |
| Br.C=CCN1CCc2cc(O)c(O)cc2C(c2ccccc2)C1 (stereo not drawn) [(B1)-SKF 38393, N-allyl-, hydrobromide] | −1.59 | – |
| Cl.Oc1cc2c(cc1O)C(c1ccccc1)CNCC2 (stereo not drawn) [(B1)-SKF-38393 hydrochloride] | 1.28 | – |
| CC(C)NCC(O)c1ccc(NS(C)(=O)=O)cc1.Cl (stereo not drawn) [(B1)-Sotalol hydrochloride] | −0.813 | – |

| Compound | Z Score | also measured |
| --- | --- | --- |
| CCN1CCCC1CNC(=O)c1cc(S(N)(=O)=O)ccc1OC (stereo not drawn) [(B1)-Sulpiride] | −0.2841 | – |
| CNCC(O)c1ccc(O)cc1 (stereo not drawn) [(B1)-Synephrine] | −0.1488 | – |
| O=C1c2c(O)cc(O)cc2OC(c2ccc(O)c(O)c2)C1O (stereo not drawn) [(B1)-Taxifolin] | 1.321 | – |
| O=C1CCC(N2C(=O)c3ccccc3C2=O)C(=O)N1 (stereo not drawn) [(B1)-Thalidomide] | 0.521 | – |
| COc1cc(C(O)C(=O)O)ccc1O (stereo not drawn) [(B1)-Vanillylmandelic acid] | −1.811 | – |
| COc1ccc(CCN(C)CCCC(C#N)(c2ccc(OC)c(OC)c2)C(C)C)cc1OC.Cl (stereo not drawn) [(B1)-Verapamil hydrochloride] | 1.008 | – |
| Cl.OC1CCCCC1N1CCC(c2ccccc2)CC1 (stereo not drawn) [(B1)-Vesamicol hydrochloride] | −1.967 | – |
| O=C(O)CCCCC1CCSS1 (stereo not drawn) [(B1)-alpha-Lipoic Acid] | 0.3418 | – |
| CC(N)(C(=O)O)c1ccc(C(=O)O)cc1 (stereo not drawn) [(B1)-alpha-Methyl-4-carboxyphenylglycine] | 0.727 | – |
| C=CC(N)CCC(=O)O (stereo not drawn) [(B1)-gamma-Vinyl GABA] | −0.701 | – |
| CCC1(c2ccc(N)cc2)CCC(=O)NC1=O (stereo not drawn) [(B1)-p-Aminoglutethimide] | −0.4441 | – |
| NC(Cc1ccc(Cl)cc1)C(=O)O (stereo not drawn) [(B1)-p-Chlorophenylalanine] | −0.2471 | – |
| NC/C=C/C(=O)O [(E)-4-amino-2-butenoic acid] | – | Z Score [3]: −2.149; Z score [5]: −2.149; Activity [6]: no |
| O=c1[nH]c(=O)n([C@H]2C[C@H](O)[C@@H](CO)O2)cc1/C=C/Br [(E)-5-(2-Bromovinyl)-2′-deoxyuridine] | – | Z Score (168 h, 3 µM): −2.123; Z score (168 h, 3 µM): −2.123; Activity [4]: no |
| CS(=O)(=O)O.Cc1c(C(=O)c2cccc3ccccc23)c2cccc3c2n1[C@H](CN1CCOCC1)CO3 [(R)-(+)-WIN 55,212-2 mesylate] | −0.6807 | Z score [5]: −0.681; Activity [6]: no |
| N[C@H](C(=O)O)c1cc(O)cc(O)c1 [(S)-3,5-Dihydroxyphenyglycine] | – | Z score [9]: −0.336; Activity [4]: no |
| N[C@H](C(=O)O)c1cc(O)cc(O)c1 [(S)-3,5-Dihydroxyphenylglycine] | – | Z Score [8]: −0.3364 |
| CC[C@@]1(O)C(=O)OCc2c1cc1n(c2=O)Cc2cc3ccccc3nc2-1 [(S)-(+)-Camptothecin] | – | Z Score [3]: −9.67; Z score [1]: −9.670; Activity [7]: yes |
| OC[C@H]1O[C@@H](n2cnc3c(N[C@H]4CC5CCC4C5)ncnc32)[C@H](O)[C@@H]1O (stereo partly drawn) [(S)-ENBA] | 0.2078 | Z score [1]: 0.208; Activity [4]: no |
| C[C@](N)(CCP(=O)(O)O)C(=O)O.Cl [(S)-MAP4 hydrochloride] | −0.5525 | Z score [1]: −0.553; Activity [7]: no |
| C/C=C1\C(=O)C[C@H]2[C@@H]3CCC4=CC(=O)CC[C@]4(C)[C@H]3CC[C@]12C [(Z)-Gugglesterone] | 3.205 | Z score [9]: 3.205; Activity [4]: no |
| COc1ccc2c3c1O[C@H]1C(=O)CC[C@@]4(O)[C@@H](C2)N(CC2CC2)CC[C@]314.Cl [(−)-3-Methoxynaltrexone hydrochloride] | 0.5963 | Z score [1]: 0.596; Activity [2]: no |
